{"source": "ChEMBL document CHEMBL5137049", "about": "“Discovery of a Novel Small-Molecule Inhibitor Disrupting TRBP-Dicer Interaction against Hepatocellular Carcinoma via the Modulation of microRNA Biogenesis” (J Med Chem, 2022)", "key": {"HeLa [1]": {"system": "HeLa", "assay": "Upregulation of pre-miR-214 in human HeLa cells at 10 uM incubated for 6 hrs by qRT-PCR analysis", "assay_type": "functional, cell-based"}, "SK-HEP1 [2]": {"system": "SK-HEP1", "assay": "Downregulation of SUV39H1 expression in human SK-HEP1 cells at 1 to 25 uM by Western blotting analysis", "assay_type": "functional, cell-based", "conditions": "dose 1-25 µM"}, "SK-HEP1 [3]": {"system": "SK-HEP1", "assay": "Upregulation of let-7 expression in human SK-HEP1 cells at 10 uM by qRT-PCR analysis", "assay_type": "functional, cell-based"}, "SK-HEP1 [4]": {"system": "SK-HEP1", "assay": "Downregulation of vimentin expression level in TRBP siRNA transfected human SK-HEP1 cells incubated for 48 hrs by Western blotting analysis", "assay_type": "functional, cell-based"}, "SK-HEP1 [5]": {"system": "SK-HEP1", "assay": "Downregulation of miR-18a expression in human SK-HEP1 cells at 10 uM by qRT-PCR analysis", "assay_type": "functional, cell-based"}, "SK-HEP1 [6]": {"system": "SK-HEP1", "assay": "Antitumor activity against human SK-HEP1 cells xenografted in SCID mouse assessed as reduction in number of intrahepatic migration lesions at 10 to 25 mg/kg, ip administered every 2 days for 4 weeks by hematoxyin-eosin staining based analysis", "assay_type": "functional, organism-based", "conditions": "dose 10-25 mg/kg"}, "[7]": {"assay": "Inhibition of microRNA in human HeLa cells transfected with pCI-neo-luciferase-miR-21 plasmid assessed as change in luciferase signal incubated for 24 hrs by luciferase reporter assay", "assay_type": "cell-based"}, "MHCC97-L [8]": {"system": "MHCC97-L", "assay": "Downregulation of miR-135 expression in human MHCC97-L cells at 10 uM by qRT-PCR analysis", "assay_type": "functional, cell-based"}, "HepG2 [9]": {"system": "HepG2", "assay": "Upregulation of pre-miR-122 in human HepG2 cells at 10 uM incubated for 6 hrs by qRT-PCR analysis", "assay_type": "functional, cell-based"}, "[10]": {"assay": "Acute toxicity in KM mouse assessed as effect on heart at 100 mg/kg, ip administered for 7 consecutive days by hematoxyin-eosin staining based analysis", "assay_type": "organism-based", "conditions": "in vivo, 168 h, time 7 day"}, "HCCLM3 [11]": {"system": "HCCLM3", "assay": "Downregulation of miR-135 expression in human HCCLM3 cells at 10 uM by qRT-PCR analysis", "assay_type": "functional, cell-based"}, "Mus musculus [12]": {"system": "Mus musculus", "assay": "Upregulation of E-cadherin expression in liver of SCID mouse xenografted with human SK-HEP1 cells at 10 to 50 mg/kg, ip administered every 2 days for 4 weeks by immunohistochemical staining analysis", "assay_type": "functional, organism-based", "conditions": "dose 10-50 mg/kg"}, "HeLa [13]": {"system": "HeLa", "assay": "Downregulation of miR-21 expression in human HeLa cells at 10 uM incubated for 6 hrs by qRT-PCR analysis", "assay_type": "functional"}, "SK-HEP1 [14]": {"system": "SK-HEP1", "assay": "Downregulation of vimentin expression in human SK-HEP1 cells at 1 to 25 uM by Western blot analysis", "assay_type": "functional, cell-based", "conditions": "dose 1-25 µM"}, "HeLa [15]": {"system": "HeLa", "assay": "Downregulation of miR-214 expression in human HeLa cells at 10 uM incubated for 6 hrs by qRT-PCR analysis", "assay_type": "functional"}, "[16]": {"assay": "Acute toxicity in KM mouse assessed as effect on brain at 100 mg/kg, ip administered for 7 consecutive days by hematoxyin-eosin staining based analysis", "assay_type": "organism-based", "conditions": "in vivo, 168 h, time 7 day"}, "[17]": {"assay": "Inhibition of TRBP (unknown origin) - recombinant Dicer (unknown origin) protein-protein interaction incubated for 3 hrs by GST pull-down assay", "parameters": "species or system Homo sapiens"}, "MHCC97-L [18]": {"system": "MHCC97-L", "assay": "Antitumor activity against human MHCC97-L cells xenografted in SCID mouse assessed as reduction in tumor proliferation at 10 to 50 mg/kg, ip administered every 2 days for 4 weeks", "assay_type": "functional, organism-based", "conditions": "dose 10-50 mg/kg"}, "HeLa [19]": {"system": "HeLa", "assay": "Upregulation of pre-miR-30a in human HeLa cells at 10 uM incubated for 6 hrs by qRT-PCR analysis", "assay_type": "functional, cell-based"}, "SK-HEP1 [20]": {"system": "SK-HEP1", "assay": "Downregulation of N-cadherin expression level in TRBP siRNA transfected human SK-HEP1 cells incubated for 48 hrs by Western blotting analysis", "assay_type": "functional, cell-based"}, "HCCLM3 [21]": {"system": "HCCLM3", "assay": "Upregulation of miR-125 expression in human HCCLM3 cells at 10 uM by qRT-PCR analysis", "assay_type": "functional, cell-based"}, "SK-HEP1 [22]": {"system": "SK-HEP1", "assay": "Downregulation of beta-catenin expression level in TRBP siRNA transfected human SK-HEP1 cells incubated for 48 hrs by Western blotting analysis", "assay_type": "functional, cell-based"}, "HCCLM3 [23]": {"system": "HCCLM3", "assay": "Upregulation of let-7 expression in human HCCLM3 cells at 10 uM by qRT-PCR analysis", "assay_type": "functional, cell-based"}, "SK-HEP1 [24]": {"system": "SK-HEP1", "assay": "Upregulation of TIMP4 expression in human SK-HEP1 cells at 1 to 25 uM by Western blotting analysis", "assay_type": "functional, cell-based", "conditions": "dose 1-25 µM"}, "Mus musculus [25]": {"system": "Mus musculus", "assay": "Downregulation of beta-catenin expression in liver of SCID mouse xenografted with human SK-HEP1 cells at 10 to 50 mg/kg, ip administered every 2 days for 4 weeks by immunohistochemical staining analysis", "assay_type": "functional, organism-based", "conditions": "dose 10-50 mg/kg"}, "MHCC97-L [26]": {"system": "MHCC97-L", "assay": "Downregulation of miR-18a expression in human MHCC97-L cells at 10 uM by qRT-PCR analysis", "assay_type": "functional, cell-based"}, "HeLa [27]": {"system": "HeLa", "assay": "Upregulation of pri-miR-30a in human HeLa cells at 10 uM incubated for 6 hrs by qRT-PCR analysis", "assay_type": "functional, cell-based"}, "HepG2 [28]": {"system": "HepG2", "assay": "Upregulation of pri-miR-122 in human HepG2 cells at 10 uM incubated for 6 hrs by qRT-PCR analysis", "assay_type": "functional, cell-based"}, "[29]": {"assay": "Toxicity in SCID mouse xenografted with human MHCC97-L cells assessed as effect on kidney at 10 to 50 mg/kg, ip administered every 2 days for 4 weeks by hematoxyin-eosin staining based analysis", "assay_type": "organism-based", "conditions": "in vivo, 672 h, dose 10-50 mg/kg"}, "[30]": {"assay": "Toxicity in SCID mouse xenografted with human MHCC97-L cells assessed as effect on liver at 10 to 50 mg/kg, ip administered every 2 days for 4 weeks by hematoxyin-eosin staining based analysis", "assay_type": "organism-based", "conditions": "in vivo, 672 h, dose 10-50 mg/kg"}, "Homo sapiens": {"species_on_record": "Homo sapiens", "assay": "Effect on ADAR1-Dicer interaction (unknown origin) assessed as increase in binding of ADAR1 to Dicer at 1 to 25 uM by Western blotting analysis", "conditions": "dose 1-25 µM"}, "Mus musculus [31]": {"system": "Mus musculus", "assay": "Downregulation of vimentin expression in liver of SCID mouse xenografted with human SK-HEP1 cells at 10 to 50 mg/kg, ip administered every 2 days for 4 weeks by immunohistochemical staining analysis", "assay_type": "functional, organism-based", "conditions": "dose 10-50 mg/kg"}, "SK-HEP1 [32]": {"system": "SK-HEP1", "assay": "Downregulation of N-cadherin expression in human SK-HEP1 cells at 1 to 25 uM by Western blot analysis", "assay_type": "functional, cell-based", "conditions": "dose 1-25 µM"}, "SK-HEP1 [33]": {"system": "SK-HEP1", "assay": "Upregulation of PTEN protein expression in human SK-HEP1 cells incubated for 24 hrs by Western blotting analysis", "assay_type": "functional, cell-based", "conditions": "dose 1-50 µM, DDE = dose-dependent effect"}, "HeLa [34]": {"system": "HeLa", "assay": "Inhibition of microRNA in human HeLa cells transfected with pCI-neo-luciferase-miR-21 plasmid assessed as change in luciferase signal by measuring relative luciferase unit by luciferase reporter assay", "assay_type": "cell-based"}, "MHCC97-L [35]": {"system": "MHCC97-L", "assay": "Inhibition of cell migration in human MHCC97-L cells at 1 to 25 uM measured after 24 hrs by crystal violet staining based transwell assay", "assay_type": "functional", "conditions": "dose 1-25 µM"}, "HCCLM3 [36]": {"system": "HCCLM3", "assay": "Inhibition of cell migration in human HCCLM3 cells assessed as reduction of cell mobility at 1 to 25 uM measured at 24 hrs by well scratch method", "assay_type": "functional, cell-based", "conditions": "dose 1-25 µM"}, "SK-HEP1 [37]": {"system": "SK-HEP1", "assay": "Downregulation of RHOB expression in human SK-HEP1 cells at 1 to 25 uM by Western blotting analysis", "assay_type": "functional, cell-based", "conditions": "dose 1-25 µM"}, "HepG2 [38]": {"system": "HepG2", "assay": "Upregulation of pre-miR-21 in human HepG2 cells at 10 uM incubated for 6 hrs by qRT-PCR analysis", "assay_type": "functional, cell-based"}, "HepG2 [39]": {"system": "HepG2", "assay": "Upregulation of pri-miR-21 in human HepG2 cells at 10 uM incubated for 6 hrs by qRT-PCR analysis", "assay_type": "functional, cell-based"}}, "note": "Activity calls are given as the source filed them. The calls are words filed in the database; no cut-off is given here."}
{"smiles": "CCOC(=O)c1nc(-c2ccc(OC)cc2)oc1C", "values": [{"measurement": "Activity", "setting": "HeLa [1]", "result": "Active"}, {"measurement": "Activity", "setting": "SK-HEP1 [2]", "result": "Active"}, {"measurement": "Activity", "setting": "SK-HEP1 [3]", "result": "Active"}, {"measurement": "Activity", "setting": "SK-HEP1 [4]", "result": "Active"}, {"measurement": "Activity", "setting": "SK-HEP1 [5]", "result": "Active"}, {"measurement": "Activity", "setting": "SK-HEP1 [6]", "result": "Active"}, {"measurement": "EC50", "setting": "[7]", "result": 1.38, "unit": "µM"}, {"measurement": "Activity", "setting": "MHCC97-L [8]", "result": "Active"}, {"measurement": "Activity", "setting": "HepG2 [9]", "result": "Active"}, {"measurement": "Activity", "setting": "[10]", "result": "Non-Toxic"}, {"measurement": "Activity", "setting": "HCCLM3 [11]", "result": "Active"}, {"measurement": "Activity", "setting": "Mus musculus [12]", "result": "Active"}, {"measurement": "Activity", "setting": "HeLa [13]", "result": 60, "unit": "%"}, {"measurement": "Activity", "setting": "SK-HEP1 [14]", "result": "Active"}, {"measurement": "Activity", "setting": "HeLa [15]", "result": 60, "unit": "%"}, {"measurement": "Activity", "setting": "[16]", "result": "Non-Toxic"}, {"measurement": "IC50", "setting": "[17]", "result": 12.3, "unit": "µM"}, {"measurement": "Activity", "setting": "MHCC97-L [18]", "result": "Active"}, {"measurement": "Activity", "setting": "HeLa [19]", "result": "Active"}, {"measurement": "Activity", "setting": "SK-HEP1 [20]", "result": "Active"}, {"measurement": "Activity", "setting": "HCCLM3 [21]", "result": "Active"}, {"measurement": "Activity", "setting": "SK-HEP1 [22]", "result": "Active"}, {"measurement": "Activity", "setting": "HCCLM3 [23]", "result": "Active"}, {"measurement": "Activity", "setting": "SK-HEP1 [24]", "result": "Active"}, {"measurement": "Activity", "setting": "Mus musculus [25]", "result": "Active"}, {"measurement": "Activity", "setting": "MHCC97-L [26]", "result": "Active"}, {"measurement": "Activity", "setting": "HeLa [27]", "result": "Active"}, {"measurement": "Activity", "setting": "HepG2 [28]", "result": "Active"}, {"measurement": "Activity", "setting": "[29]", "result": "Non-Toxic"}, {"measurement": "Activity", "setting": "[30]", "result": "Non-Toxic"}, {"measurement": "Activity", "setting": "Homo sapiens", "result": "Active"}, {"measurement": "Activity", "setting": "Mus musculus [31]", "result": "Active"}, {"measurement": "Activity", "setting": "SK-HEP1 [32]", "result": "Active"}, {"measurement": "Activity", "setting": "SK-HEP1 [33]", "result": "Dde"}, {"measurement": "RLU", "setting": "HeLa [34]", "result": 5.68}, {"measurement": "inhibition", "setting": "MHCC97-L [35]", "result": "Active"}, {"measurement": "inhibition", "setting": "HCCLM3 [36]", "result": "Active"}, {"measurement": "Activity", "setting": "SK-HEP1 [37]", "result": "Active"}, {"measurement": "Activity", "setting": "HepG2 [38]", "result": "Active"}, {"measurement": "Activity", "setting": "HepG2 [39]", "result": "Active"}]}
